Structures can show the parent of a compound that is named as a salt.
Assay: Dissolution, USP basket apparatus 1, simulated intestinal fluid pH 6.8
Format: physicochemical
Settings: for drug release 0.5 h / drug release 1 h / drug release 2 h / drug release 4 h / drug release 8 h / drug release 12 h / drug release 24 h: Table 7, Example VII combination tablet; for drug release 0 h: Table 7, Example VII tablet: 20% silicone PSA, 8.7% tramadol HCl, 71.7% acetaminophen
Method: The release rate of these formulations were carried out using USP dissolution basket apparatus 1 (Vankel, Inc) using about 100 rpm stirring speed at about 37 C in about 900 ml of the dissolution medium. The dissolution medium used was simulated intestinal fluid with a pH of about 6.8. At predetermined time intervals, 1 ml of sample was withdrawn and was analyzed to determine acetaminophen concentration. Concentration of acetaminophen in the dissolution medium was determined using a HPLC method. A C8 column was used using mobile phase of 65% methanol and 35% water. Flow rate was 1 ml/min and the UV detection wavelength was 254 nm. The results are reported as average of six tablets. […] Total weight of each tablet was 500 mg. The diameters of the tablets were 13 mm.

## CC(=O)Nc1ccc(O)cc1 [APAP, acetaminophen]
  drug release 0.5 h: 13.5
  drug release 1 h: 22.6
  drug release 2 h: 31.9
  drug release 4 h: 44.8
  drug release 8 h: 61.1
  drug release 12 h: 74.3
  drug release 24 h: 86.0
  drug release 0 h: 0.0

## COc1cccc(C2(O)CCCCC2CN(C)C)c1 (stereo not shown) [Tramadol HCl, Tramadol hydrochloride]
  drug release 0.5 h: 15.8
  drug release 1 h: 23.2
  drug release 2 h: 32.1
  drug release 4 h: 43.4
  drug release 8 h: 56.8
  drug release 12 h: 68.3
  drug release 24 h: 89.4
  drug release 0 h: 0.0
